Data published in patent US20110104274A1, “NOVEL COMPOSITION AND USES THEREOF, IN PARTICULAR COSMETIC USES, FOR TREATING SKIN DEHYDRATION” (COMPAGNIE GERVAIS DANONE, priority 2006, published 2011).

How the values were obtained:
[1] = test system: transglutaminase K (TGK) expression in normal human keratinocytes (NHEKs); experiment: Expression of transglutaminase K (TGK) in NHEKs (immunofluorescence related to number of nuclei); assay type: cell-based; details: for Expression of TGK (average): related to negative control
Method: The GLA used is the product L2378 from the company SIGMA. The 4 main forms of catechins forming green tea polyphenol are mixed in the natural proportions: EGCG, EGC, ECG and EC (respective SIGMA references E4143, E3768, E3893 and E4018).
The range of concentration of GLA tested in vitro was from 1 to 4 μg/ml and that of GTP was from 0.3 to 0.7 μg/ml.
(§1) The tests are carried out on normal human keratinocytes (NHEKs) in a monolayer. The NHEKs are sown at 10^4/well in serum-free medium (SFM) without calcium, under conditions of temperature of 37° C., CO2 of 5% and relative humidity RH>95%. The NHEKs are incubated like this for 24 hours. The medium is then removed. Then the NHEKs are incubated for 48 hours in the presence of either: • SFM (serum-free medium) with addition of gamma-linolenic acid and green tea polyphenols at a concentration of 1.25, 2.5 or 3.75 μg/mL for GLA and at a concentration of 0.5 μg/ml for GTP; • SFM (serum-free medium) without calcium, which serves as negative control; • SFM (serum-free medium) with addition of calcium (1.50 mM), which serves as positive control.
The media are removed and a second incubation is carried out in the presence of the 3 types of media.
The culture medium is removed and then rinsing with PBS is carried out. The cells are then permeabilized and fixed with absolute methanol for 10 minutes at −20° C. Then drying and nonspecific saturation with a PBS-Tween20-milk proteins mixture are carried out, followed by rinsing with PBS. The NHEK cells are labelled with an anti-TGK monoclonal antibody (Reference: TEBU 0175003), then incubated for 1 hour at room temperature and rinsed with PBS.
Detection is carried out with a GAM-FITC conjugated secondary antibody (Reference: Life Technology A 11001) and the fluorescence is measured using software (Reference: NIKKON; LICIA Software).
The nuclei are labelled and counted by the Hoechst technique. First, the medium is removed and rinsing with PBS is carried out. Hoechst labelling (Reference: bis-benzimide Sigma B1155) is then used and incubation is carried out for 1 hour at ambient temperature. This is followed by rinsing with PBS, image acquisition and quantification of fluorescence.
The results are expressed in specific fluorescence of TGK, i.e. they are related to the number of nuclei so as to be independent of the variations in growth of the cells.
The average expression of TGK corresponds to measurement of the quantity of fluorescence referred to the number of nuclei after Hoechst labelling.

[2] = test system: normal human keratinocytes (NHEKs); experiment: Cytotoxicity test (MTT) on NHEKs, TGK study; assay type: cell-based; details: MTT labelling
Method: as §1
(§2) The cell viability of the NHEKs is evaluated after labelling with 3-[4,5-dimethylthiazol-2-yl]-2,5-diphenyltetrazolium bromide (MTT) (SIGMA).

[3] = test system: involucrin expression in normal human keratinocytes (NHEKs); experiment: Expression of involucrin in NHEKs (ELISA); assay type: cell-based; details: 0 to 10 μg/mL; NHEKs of groups 1 (abdominal) and 2 (breast); high or low calcium concentration; 48 hours
Method: The GLA used is the product L2378 from the company SIGMA.
(§3) The NHEKs of the two groups are incubated for 48 hours in the presence of a low ([…]) or a high ([…]) concentration of calcium, and in the presence of either: • SFM (serum-free medium) with addition of 0, 1, 3 and 10 μg/mL of gamma-linolenic acid and/or of green tea extracts, in which the concentration of green tea polyphenol is approximately 88 wt. %; • SFM (serum-free medium) with addition of calcium, which serves as positive control.

[4] = test system: normal human keratinocytes (NHEKs); experiment: Cytotoxicity test (MTT) on NHEKs, involucrin study; assay type: cell-based; details: up to 10 μg/mL, regardless of the calcium concentration
Method: as §3, §2

[5] = Bioavailability study: plasma/serum concentrations of catechins (EC, EGC, EGCG) after ingestion; assay type: in vivo, human; details: ingestion of 45 mg of catechins
Method: This study evaluates the bioavailability of the combination of catechins with GLA, and in particular the bioavailability of this combination in a yoghurt containing probiotics (see Table 1).
To evaluate this bioavailability, the plasma concentrations of GLA and of catechins are monitored at different points in time after ingestion of products 1, 2, 3 or 4.
This study is a norm-centred, randomized, open study. It was carried out with 12 female volunteers (average age 30.8 years; body mass index (BMI) on average 21.4).
During each assessment visit (V2, V3, V4), the subjects consumed a product at random (among the 4 products). […]
[…] blood samples were taken in the 6 hours following ingestion of the product. The plasma concentration of the active ingredients was measured at 6 points in time (T0, T1 h, T2 h, T3 h, T4 h, T6 h) for measuring the plasma kinetics of GLA and the catechins. […]
The plasma concentrations of catechins and specifically of epicatechin (EC), epigallocatechin (EGC), and epigallocatechin gallate (EGCG) were determined by HPLC as described by Lee et al. (Lee M J, Prabhu S, Meng X, Li C, Yang C S. An improved method for the determination of green and black tea polyphenols in biomatrices by high-performance liquid chromatography with coulometric array detection. Anal. Biochem. 2000; 279: 164-9) and on the basis of the general knowledge of a person skilled in the art. […]

promoter of involucrin = details: high dose of 20 μg/mL; literature; cited from earlier work

SMILES: [Ca+2] [Ca++, calcium]
- Expression of TGK (average) ([1]; positive control, calcium 1.5 mM): 1407%

SMILES: CCCCC/C=C\C/C=C\C/C=C\CCCCC(=O)O [GLA, gamma-linolenic acid]
- Expression of TGK (average) ([1]; GLA 1.25 μg/mL): 250%
- Expression of TGK (average) ([1]; GLA 3.75 μg/mL): 220%
- expression/activation of TGK after treatment (conclusion in words) ([1]; at the concentrations tested (GLA 1.25 and 3.75 μg/mL; GTP 0.5 μg/mL; GLA 2.5 + GTP 0.5 μg/mL)): seems to be activated
- maximum concentration without loss of viability of the NHEKs [2]: 5.00 µg/mL
- expression of involucrin after treatment alone [3]: increased
- toxicity to the NHEKs [4]: not toxic

SMILES: O=C(O[C@@H]1Cc2c(O)cc(O)cc2O[C@@H]1c1cc(O)c(O)c(O)c1)c1cc(O)c(O)c(O)c1 [EGCG, epigallocatechin gallate]
- concentration of the individual catechin in the serum [5]: 0.04 to 0.33 µmol
- concentration of the individual catechin in the serum ([5]; mass units): 18 to 152 ng/mL
- effect on the promoter of involucrin (promoter of involucrin): activation
